For 27 compounds, melting point results are on record in patent US7553867B2, “Furan or thiophene derivative and medicinal use thereof” (Takeda Pharmaceutical Company Limited, priority 2002, dated 2009).

The term melting point denotes the temperature of the solid-liquid transition. For `Cc1oc(-c2ccc(F)cc2)cc1C(=O)N(C)c1cccc(CSCC(=O)O)c1` [Example 1(1), [(3{[5-(4-Fluorophenyl)-2-methyl-3-furoyl](methyl)amino}benzyl)thio]acetic acid], the melting point fell in the range of 155 to 156 °C.

Turning to `CCCN(C(=O)c1cc(-c2ccc(F)cc2)oc1C)c1cccc(CSCC(=O)O)c1` [Example 1(2), [(3{[5-(4-Fluorophenyl)-2-methyl-3-furoyl](propyl)amino}benzyl)thio]acetic acid], the melting point lay in the range of 140 to 141 °C.

`O=C(O)CSCc1cccc(NC(=O)c2ccc(-c3ccc(Cl)cc3)o2)c1` [Example 2(3), [(3-{[5-(4-Chlorophenyl)-2-furoyl]amino}benzyl]thio]acetic acid] registered a melting point of 173 to 174 °C.

`CCCCc1oc(-c2ccc(C(F)(F)F)cc2)cc1CCC(=O)Nc1cccc(CSCC(=O)O)c1` [Example 2(5), ({3-[(3-{2-Butyl-5-[4-(trifluoromethyl)phenyl]-3-furyl}propionyl)amino)benzyl}thio) acetic acid] showed a melting point of 137 to 138 °C.

Take `Cc1oc(-c2ccc(C(F)(F)F)cc2)cc1CC(=O)Nc1cccc(CSCC(=O)O)c1` [Example 4(1), ({3-[({2-Methyl-5-[4-(trifluoromethyl)phenyl]-3-furyl}acetyl)amino]benzyl}thio)acetic acid]: the melting point was 173 to 174 °C.

Turning to `Cc1oc(-c2ccc(OC(F)(F)F)cc2)cc1C(=O)Nc1cccc(CSCC(=O)O)c1` [Example 4(2)], the melting point was 200 to 202 °C.

In the case of `O=C(O)CSCc1cccc(OCc2cc(-c3ccccc3)oc2C(F)(F)F)c1` [Example 5(4), [(3-{[5-Phenyl-2-(trifluoromethyl)-3-furyl]methoxy}benzyl)thio]acetic acid], the melting point lay within 84 to 85 °C.

`Cc1cc(OCc2cc(-c3ccc(C(F)(F)F)cc3)oc2C)ccc1CC(=O)O` [Example 6(3), [2-Methyl-4-({2-methyl-5-[4-(trifluoromethyl)phenyl]-3-furyl}methoxy)phenyl]acetic acid]: the melting point lay within 147 to 149 °C.

`Cc1oc(-c2ccc(C(F)(F)F)cc2)cc1COc1ccc(OC(C)(C)C(=O)O)cc1` [Example 6(5), 2-Methyl-2-[4-({2-methyl-5-[4-(trifluoromethyl)phenyl]-3-furyl}methoxy)phenoxy]propionic acid] returned a melting point of 134 to 135 °C.

Compound `Cc1oc(-c2ccc(C(F)(F)F)cc2)cc1CCCOc1ccc(CC(=O)O)cc1` [Example 6(8), [4-(3-{2-Methyl-5-[4-(trifluoromethyl)phenyl]-3-furyl}propoxy)phenyl]acetic acid] came in with a melting point of 113 to 114 °C.

For `Cc1oc(-c2ccc(C(F)(F)F)cc2)cc1COc1ccc(CC(=O)O)cc1` [Example 6(9), [4-({2-Methyl-5-[4-(trifluoromethyl)phenyl]-3-furyl}methoxy)phenyl]acetic acid], the melting point lay in the range of 147 to 149 °C.

Consider `COc1cc(OCc2cc(-c3ccc(C(F)(F)F)cc3)oc2C)ccc1CC(=O)O` [Example 6(10), [2-Methoxy-4-({2-methyl-5-[4-(trifluoromethyl)phenyl]-3-furyl}methoxy)phenyl]acetic acid], for which the melting point was in the range of 168 to 169 °C.

In turn, `Cc1oc(-c2ccc(F)cc2)cc1COc1cccc(COCC(=O)O)c1` [Example 6(11), [(3-{[5-(4-Fluorophenyl)-2-methyl-3-furyl]methoxy}benzyl)oxy]acetic acid] showed a melting point of 109 to 110 °C.

In the case of `Cc1oc(-c2ccc(C(F)(F)F)cc2)cc1CCOc1ccc(CC(=O)O)cc1` [Example 6(13), [4-(2-{2-Methyl-5-[4-(trifluoromethyl)phenyl]-3-furyl}ethoxy)phenyl]acetic acid], the melting point was in the range of 115 to 116 °C.

On to `CCCCc1oc(-c2ccc(C(F)(F)F)cc2)cc1CCCOc1cccc(CC(=O)O)c1` [Example 6(15), [3-(3-{2-Butyl-5-[4-(trifluoromethyl)phenyl]-3-furyl}propoxy)phenyl]acetic acid], for which the melting point fell in the range of 80 to 82 °C.

With `CCCCc1oc(-c2ccc(C(F)(F)F)cc2)cc1CCCOc1ccc(CC(=O)O)cc1` [Example 6(16), [4-(3-{2-Butyl-5-[4-(trifluoromethyl)phenyl]-3-furyl}propoxy)phenyl]acetic acid], the melting point fell in the range of 96 to 97 °C.

In turn, `Cc1nc(SCc2cc(-c3ccc(F)cc3)oc2C)sc1CC(=O)O` [Example 6(18), [2-({[5-(4-Fluorophenyl)-2-methyl-3-furyl]methyl}thio)-4-methyl-1,3-thiazol-5-yl]acetic acid] gave a melting point of 202 to 205 °C.

In turn, `Cc1oc(-c2ccc(F)cc2)cc1COc1cccc(CCCC(=O)O)c1` [Example 6(19), 4-(3-{[5-(4-Fluorophenyl)-2-methyl-3-furyl]methoxy}phenyl)butanoic acid] registered a melting point of 98 to 99 °C.

With `Cc1cc(OCCc2cc(-c3ccc(C(F)(F)F)cc3)oc2C)ccc1CCC(=O)O` [Example 6(22), 3-[2-Methyl-4-(2-{2-methyl-5-[4-(trifluoromethyl)phenyl]-3-furyl}ethoxy)phenyl]propionic acid], the melting point fell in the range of 118 to 120 °C.

`Cc1oc(-c2ccc(C(F)(F)F)cc2)cc1CCOc1ccc(OCC(=O)O)cc1` [Example 6(23), [4-(2-{2-Methyl-5-[4-(trifluoromethyl)phenyl]-3-furyl}ethoxy)phenoxy]acetic acid] yielded a melting point of 132 to 133 °C.

In the case of `Cc1oc(-c2ccc(C(F)(F)F)cc2)cc1CCCOc1ccc(OCC(=O)O)cc1` [Example 6(25), [4-(3-{2-Methyl-5-[4-(trifluoromethyl)phenyl]-3-furyl}propoxy)phenoxy]acetic acid], the melting point fell in the range of 134 to 135 °C.

`CCc1oc(-c2ccc(C(F)(F)F)cc2)cc1CCCOc1ccc(CC(=O)O)cc1` [Example 6(27), [4-(3-{2-Ethyl-5-[4-(trifluoromethyl)phenyl]-3-furyl}propoxy)phenyl]acetic acid] registered a melting point of 121 to 122 °C.

As to `Cc1oc(-c2ccc(C(F)(F)F)cc2)cc1CCCOc1ccc(OC(C)(C)C(=O)O)cc1` [Example 6(31), 2-Methyl-2-[4-(3-{2-methyl-5-[4-(trifluoromethyl)phenyl]-3-furyl}propoxy)phenoxy]propionic acid], the melting point was 123 to 124 °C.

Regarding `Cc1oc(-c2ccc(C(F)(F)F)cc2)cc1COc1ccc2cc(CCC(=O)O)ccc2c1` [Example 6(34), 3-[6-({2-Methyl-5-[4-(trifluoromethyl)phenyl]-3-furyl}methoxy)-2-naphthyl]propionic acid], the melting point was 191 to 192 °C.

Take `Cc1nc(SCCc2cc(-c3ccc(F)cc3)oc2C)sc1CC(=O)O` [Example 6(38), [2-({2-[5-(4-Fluorophenyl)-2-methyl-3-furyl]ethyl}thio)-4-methyl-1,3-thiazol-5-yl]acetic acid]: the melting point was in the range of 124 to 126 °C.

For the compound `CCc1oc(-c2ccc(C(F)(F)F)cc2)cc1CCCOc1ccc(OC)c(CC(=O)O)c1` [Example 6(39), [5-(3-{2-Ethyl-5-[4-(trifluoromethyl)phenyl]-3-furyl}propoxy)-2-methoxyphenyl]acetic acid], the melting point lay within 138 to 139 °C.

In turn, `CCc1oc(-c2ccc(C(F)(F)F)cc2)cc1CCCOc1cc(CC(=O)O)ccc1OC` [Example 6(40), [3-(3-{2-Ethyl-5-[4-(trifluoromethyl)phenyl]-3-furyl}propoxy)-4-methoxyphenyl]acetic acid] had a melting point of 137 to 138 °C.
